Results published in patent US9624241B2 (Incyte Corporation, priority 2013, dated 2017).
Read-outs that look alike come from different tables or passages of the source. Each block holds one compound with its values, some of them ahead of it.

Columns and labels:
BRD4-BD2 = BRD4-BD2 (Homo sapiens (Human), UniProt O60885); assay: BRD4 AlphaScreen Assay (Example A2), BRD4-BD2; format: binding
Experimental: (§1) BRD4-BD1 and BRD4-BD2 assays were conducted in white 384-well polystyrene plate in a final volume of 40 μL for BD1 and 60 μL for BD2. Inhibitors were first serially diluted in DMSO and added to the plate wells before the addition of other reaction components. […] The assays were carried out at room temperature in the assay buffer (50 mM Tris-HCl, pH 7.5, 0.01% Tween-20, 0.01% BSA, 5 mM DTT), containing 50 nM Biotin-labeled tetra-acetylated histone H4 peptide (H4Ac4) and BRD4-BD1 or BRD4-BD2 protein at concentration less than 1 nM. […] After plate sealing, the plate was incubated in the dark at room temperature for 75 min. before reading on a PHERAstar FS plate reader (BMG Labtech). IC50 determination was performed by fitting the curve of percent control activity versus the log of the inhibitor concentration using the GraphPad Prism 5.0 software.

BRD4-BD1 = BRD4-BD1 (Homo sapiens (Human), UniProt O60885); assay: BRD4 AlphaScreen Assay (Example A2), BRD4-BD1; format: binding
Experimental: as §1

[1] = Assay A2, AlphaScreen, BRD4-BD2, read-out: BRD4 BD-2 enzyme IC50
[2] = Assay A2, AlphaScreen, BRD4-BD1, read-out: BRD4 BD-1 enzyme IC50

Compound: Cc1noc(C)c1-c1c(Cl)c(Cl)c2[nH]c(=O)n3c2c1OC[C@@H]3c1ccccn1 [Example 252, (4S)-8,9-dichloro-7-(3,5-dimethylisoxazol-4-yl)-4-pyridin-2-yl-4,5-dihydroimidazo[1,5,4-de][1,4]benzoxazin-2(1H)-one bistrifluoroacetate]
IC50 (BRD4-BD2; [1]): 100 to 1000 nM
IC50 (BRD4-BD1; [2]): 100 to 1000 nM

Compound: Cc1noc(C)c1-c1ccc2nc(N3CC(O)C3)n3c2c1OCC3c1cccnc1 (single isomer, unassigned) [Example 160C, 1-[7-(3,5-Dimethylisoxazol-4-yl)-4-pyridin-3-yl-4,5-dihydroimidazo[1,5,4-de][1,4]benzoxazin-2-yl]azetidin-3-ol]
IC50 (BRD4-BD2; [1]): 1000 to 10000 nM
IC50 (BRD4-BD1; [2]): 1000 to 10000 nM

Compound: Cc1noc(C)c1-c1ccc2[nH]c(=O)n3c2c1OCC3c1cccnc1CN (stereo not drawn) [Example 130, 4-[2-(Aminomethyl)pyridin-3-yl]-7-(3,5-dimethylisoxazol-4-yl)-4,5-dihydroimidazo[1,5,4-de][1,4]benzoxazin-2(1H)-one bis(trifluoroacetate)]
IC50 (BRD4-BD2; [1]): < 100 nM
IC50 (BRD4-BD1; [2]): < 100 nM

Compound: Cc1noc(C)c1-c1ccc2nc(C(C)O)n3c2c1OC[C@@H]3c1ccccn1 (stereo partly drawn) [Example 90, 1-[(4S)-7-(3,5-Dimethylisoxazol-4-yl)-4-pyridin-2-yl-4,5-dihydroimidazo[1,5,4-de][1,4]benzoxazin-2-yl]ethanol]
IC50 (BRD4-BD2; [1]): < 100 nM
IC50 (BRD4-BD1; [2]): < 100 nM

Compound: Cc1noc(C)c1-c1ccc2nc(C3CCNC3)n3c2c1OC[C@@H]3c1ccccn1 (single isomer, unassigned; diastereomer 2) [Example 106B]
IC50 (BRD4-BD2; [1]): < 100 nM
IC50 (BRD4-BD1; [2]): < 100 nM

Compound: Cc1noc(C)c1-c1cc(-c2cnn(C)c2)c2[nH]c(=O)n3c2c1OC[C@@H]3c1ccccn1 [Example 81, (4S)-7-(3,5-dimethylisoxazol-4-yl)-9-(1-methyl-1H-pyrazol-4-yl)-4-pyridin-2-yl-4,5-dihydroimidazo[1,5,4-de][1,4]benzoxazin-2(1H)-one 2,2,2-trifluoroacetate]
IC50 (BRD4-BD2; [1]): < 100 nM
IC50 (BRD4-BD1; [2]): 100 to 1000 nM

Compound: Cc1n[nH]c(C)c1-c1cc(-c2c(C)noc2C)c2c3c1[nH]c(=O)n3C(c1ccccn1)CO2 (stereo not drawn) [Example 258, 7-(3,5-dimethylisoxazol-4-yl)-9-(3,5-dimethyl-1H-pyrazol-4-yl)-4-pyridin-2-yl-4,5-dihydroimidazo[1,5,4-de][1,4]benzoxazin-2(1H)-one]
IC50 (BRD4-BD2; [1]): 100 to 1000 nM
IC50 (BRD4-BD1; [2]): 1000 to 10000 nM

Compound: CNC(=O)c1ncccc1C1COc2c(-c3c(C)noc3C)ccc3[nH]c(=O)n1c23 (stereo not drawn) [Example 128, 3-[7-(3,5-Dimethylisoxazol-4-yl)-2-oxo-1,2,4,5-tetrahydroimidazo[1,5,4-de][1,4]benzoxazin-4-yl]-N-methylpyridine-2-carboxamide]
IC50 (BRD4-BD2; [1]): < 100 nM
IC50 (BRD4-BD1; [2]): < 100 nM

Compound: Cc1noc(C)c1-c1ccc2[nH]c(=O)n3c2c1OCC3C1CCCCN1S(C)(=O)=O (stereo not drawn) [Example 79, 7-(3,5-dimethylisoxazol-4-yl)-4-[1-(methylsulfonyl)piperidin-2-yl]-4,5-dihydroimidazo[1,5,4-de][1,4]benzoxazin-2(1H)-one]
IC50 (BRD4-BD2): 1000 to 10000 nM
IC50 (BRD4-BD1): 1000 to 10000 nM

Compound: Cc1noc(C)c1-c1cc(-c2cccnc2O)c2[nH]c(=O)n3c2c1OC[C@@H]3c1ccccn1 [Example 261, (4S)-7-(3,5-dimethylisoxazol-4-yl)-9-(2-hydroxypyridin-3-yl)-4-pyridin-2-yl-4,5-dihydroimidazo[1,5,4-de][1,4]benzoxazin-2(1H)-one]
IC50 (BRD4-BD2; [1]): < 100 nM
IC50 (BRD4-BD1; [2]): 100 to 1000 nM

Compound: Cc1noc(C)c1-c1cc(C#N)c2[nH]c(=O)n3c2c1OCC3c1ccccn1 (stereo not drawn) [Example 269B, 7-(3,5-dimethylisoxazol-4-yl)-2-oxo-4-pyridin-2-yl-1,2,4,5-tetrahydroimidazo[1,5,4-de][1,4]benzoxazine-9-carbonitrile]
IC50 (BRD4-BD2; [1]): 1000 to 10000 nM
IC50 (BRD4-BD1; [2]): 1000 to 10000 nM

Compound: CCNc1nc2c(F)cc(-c3c(C)noc3C)c3c2n1C(c1cccnc1)CO3 (stereo not drawn) [Example 158, 7-(3,5-Dimethylisoxazol-4-yl)-N-ethyl-9-fluoro-4-pyridin-3-yl-4,5-dihydroimidazo[1,5,4-de][1,4]benzoxazin-2-amine]
IC50 (BRD4-BD2; [1]): < 100 nM
IC50 (BRD4-BD1; [2]): < 100 nM

Compound: Cc1noc(C)c1-c1ccc2[nH]c(=O)n3c2c1OCC3C1CCCCN1C(=O)NC(C)C (stereo not drawn) [Example 80, 2-[7-(3,5-dimethylisoxazol-4-yl)-2-oxo-1,2,4,5-tetrahydroimidazo[1,5,4-de][1,4]benzoxazin-4-yl]-N-isopropylpiperidine-1-carboxamide]
IC50 (BRD4-BD2; [1]): 1000 to 10000 nM
IC50 (BRD4-BD1; [2]): 1000 to 10000 nM

Compound: Cc1noc(C)c1-c1ccc2nc(C3CCN(C(=O)OC(C)(C)C)C3)n3c2c1OC[C@@H]3c1ccccn1 (single isomer, unassigned; diastereoisomer 2) [Example 101B]
IC50 (BRD4-BD2; [1]): < 100 nM
IC50 (BRD4-BD1; [2]): < 100 nM

Compound: Cc1noc(C)c1-c1ccc2nc(N3CCC(NC(=O)C(C)C)CC3)n3c2c1OCC3c1ccccn1 (stereo not drawn) [Example 244]
IC50 (BRD4-BD2; [1]): < 100 nM

Further lines, results first:

IC50 (BRD4-BD2; [1]): < 100 nM
IC50 (BRD4-BD1; [2]): 100 to 1000 nM
Compound: Cc1noc(C)c1-c1cc(CNC(=O)NC(C)C)c2[nH]c(=O)n3c2c1OC[C@@H]3c1ccccn1 [Example 142, N-{[(4S)-7-(3,5-Dimethylisoxazol-4-yl)-2-oxo-4-pyridin-2-yl-1,2,4,5-tetrahydroimidazo[1,5,4-de][1,4]benzoxazin-9-yl]methyl}-N′-isopropylurea]

IC50 (BRD4-BD2; [1]): < 100 nM
IC50 (BRD4-BD1; [2]): 100 to 1000 nM
Compound: Cc1noc(C)c1-c1cc(-c2ccnc(O)c2)c2[nH]c(=O)n3c2c1OC[C@@H]3c1ccccn1 [Example 260, (4S)-7-(3,5-dimethylisoxazol-4-yl)-9-(2-hydroxypyridin-4-yl)-4-pyridin-2-yl-4,5-dihydroimidazo[1,5,4-de][1,4]benzoxazin-2(1H)-one]

IC50 (BRD4-BD2; [1]): < 100 nM
IC50 (BRD4-BD1; [2]): 100 to 1000 nM
Compound: Cc1noc(C)c1-c1cc(-c2ccc(C(=O)N(C)C)nc2)c2[nH]c(=O)n3c2c1OC[C@@H]3c1ccccn1 [Example 82, 5-[(4S)-7-(3,5-dimethylisoxazol-4-yl)-2-oxo-4-pyridin-2-yl-1,2,4,5-tetrahydroimidazo[1,5,4-de][1,4]benzoxazin-9-yl]-N,N-dimethylpyridine-2-carboxamide 2,2,2-bis(trifluoroacetate)]

IC50 (BRD4-BD2; [1]): < 100 nM
IC50 (BRD4-BD1; [2]): < 100 nM
Compound: Cc1noc(C)c1-c1ccc2nc(N3CC[C@@H](N(C)C(=O)CC#N)C3)n3c2c1OC[C@@H]3c1ccccn1 [Example 152, 2-Cyano-N-{(3R)-1-[(4S)-7-(3,5-dimethylisoxazol-4-yl)-4-pyridin-2-yl-4,5-dihydroimidazo[1,5,4-de][1,4]benzoxazin-2-yl]pyrrolidin-3-yl}-N-methylacetamide]

IC50 (BRD4-BD2; [1]): < 100 nM
IC50 (BRD4-BD1; [2]): < 100 nM
Compound: COC(=O)c1ncccc1C1COc2c(-c3c(C)noc3C)ccc3[nH]c(=O)n1c23 (racemic) [Example 132, Methyl 3-[7-(3,5-dimethylisoxazol-4-yl)-2-oxo-1,2,4,5-tetrahydroimidazo[1,5,4-de][1,4]benzoxazin-4-yl]pyridine-2-carboxylate]

IC50 (BRD4-BD2; [1]): < 100 nM
IC50 (BRD4-BD1; [2]): < 100 nM
Compound: Cc1noc(C)c1-c1ccc2[nH]c(=O)n3c2c1OCC3c1ccc(F)cn1 (stereo not drawn) [Example 19, 7-(3,5-Dimethylisoxazol-4-yl)-4-(5-fluoropyridin-2-yl)-4,5-dihydroimidazo[1,5,4-de][1,4]benzoxazin-2(1H)-one]

IC50 (BRD4-BD2; [1]): < 100 nM
IC50 (BRD4-BD1; [2]): < 100 nM
Compound: Cc1noc(C)c1-c1ccc2nc(N3CC(NC(=O)OC(C)(C)C)C3)n3c2c1OC[C@@H]3c1ccccn1 [Example 196, tert-butyl {1-[(4S)-7-(3,5-dimethylisoxazol-4-yl)-4-pyridin-2-yl-4,5-dihydroimidazo[1,5,4-de][1,4]benzoxazin-2-yl]azetidin-3-yl}carbamate]

IC50 (BRD4-BD2; [1]): < 100 nM
IC50 (BRD4-BD1; [2]): < 100 nM
Compound: Cc1noc(C)c1-c1ccc2ncn3c2c1OC[C@@H]3c1ccccn1 [Example 92, (4S)-7-(3,5-Dimethylisoxazol-4-yl)-4-pyridin-2-yl-4,5-dihydroimidazo[1,5,4-de][1,4]benzoxazine]

IC50 (BRD4-BD2; [1]): < 100 nM
IC50 (BRD4-BD1; [2]): < 100 nM
Compound: Cc1noc(C)c1-c1ccc2[nH]c(=O)n3c2c1OCC3c1cncc(F)c1 (stereo not drawn) [Example 78, 7-(3,5-dimethylisoxazol-4-yl)-4-(5-fluoropyridin-3-yl)-4,5-dihydroimidazo[1,5,4-de][1,4]benzoxazin-2(1H)-one]

IC50 (BRD4-BD2; [1]): < 100 nM
IC50 (BRD4-BD1; [2]): < 100 nM
Compound: Cc1noc(C)c1-c1ccc2nc(C3=CCCN(C(=O)OC(C)(C)C)C3)n3c2c1OC[C@@H]3c1ccccn1 [Example 99, tert-Butyl 5-[(4S)-7-(3,5-dimethylisoxazol-4-yl)-4-pyridin-2-yl-4,5-dihydroimidazo[1,5,4-de][1,4]benzoxazin-2-yl]-3,6-dihydropyridine-1(2H)-carboxylate]

IC50 (BRD4-BD2; [1]): < 100 nM
IC50 (BRD4-BD1; [2]): < 100 nM
Compound: Cc1noc(C)c1-c1ccc2[nH]c(=S)n3c2c1OCC3c1ccccn1 (stereo not drawn) [Example 255, 7-(3,5-Dimethylisoxazol-4-yl)-4-pyridin-2-yl-4,5-dihydroimidazo[1,5,4-de][1,4]benzoxazine-2(1H)-thione]

IC50 (BRD4-BD2; [1]): 1000 to 10000 nM
IC50 (BRD4-BD1; [2]): 1000 to 10000 nM
Compound: Cc1noc(C)c1-c1ccc2nc(N3CC(O)C3)n3c2c1OCC3c1cccnc1 (single isomer, unassigned) [Example 160D, 1-[7-(3,5-Dimethylisoxazol-4-yl)-4-pyridin-3-yl-4,5-dihydroimidazo[1,5,4-de][1,4]benzoxazin-2-yl]azetidin-3-ol]

IC50 (BRD4-BD1; [2]): < 100 nM
Compound: Cc1noc(C)c1-c1ccc2nc(C3CCN(C(=O)C4CC4)C3)n3c2c1OC[C@@H]3c1ccccn1 (single isomer, unassigned; diastereomer 2) [Example 114B]
